Here are results for 20 molecules from patent US9216974B2, “Phenoxazine derivatives and methods of use thereof” (Washington University, priority 2010, dated 2015).

pKd, pKi: −log10 of the molar value. “Also recorded” adds a separate entry of the source. Read-outs that look alike come from different tables or passages of the source.

Series [1] deals with CAA (cerebrovascular Aβ deposits) (Homo sapiens, UniProt P05067). The experiment in a line: In situ binding assay in fixed brain tissue, CAA. The arrangement: species or system Tg2576 mice. An excerpt:
(§1) Tg2576 mice are a well characterized mouse model of AD and CAA. They develop congophilic Aβ aggregates within neuritic plaques and leptomeningeal and cortical penetrating arteries at 11 months of age (Hsiao et al., 1996; Kawarabayashi et al., 2001; Fryer et al., 2005; Han et al., 2008).
(§2) The Ki values for CAA vs. neuritic plaques will be calculated utilizing the fluorescent amyloid-ligand methoxy-X34 and fluorescent microscopic method. […] Tissue sections (3 sections per reaction) will be then mounted and coverslipped. Photographs of methoxy-X34 binding images will be taken using a Nikon fluorescent microscope. The fluorescent intensity on cerebral amyloid deposits and neuritic plaques will be separately quantified using Image J software. Finally, Ki values will be calculated by plotting % bound vs. log concentrations of competitors followed by non-linear regression using the Graph Pad Prism software. The maximum binding will be obtained from the methoxy-X34 intensity in the absence of competitors, while non-specific binding will be detected by the fluorescent intensity in brain tissues incubated without methoxy-X34.
In situ binding assay: Tg2576 mice or littermate controls at 15 months of age will be perfused with phosphatebuffered saline (PBS) for 5 min. Brains will be removed, fixed in 4% paraformaldehyde, and preserved in 30% glucose-PBS solution at 4° C. Brains will be coronally sectioned using a microtome and kept in cryoprotectant solution at −20° C. To label amyloid deposits, brain sections (3 sections per reaction) will be permeabilized with PBS containing 0.25% Triton X-100 for 20 min at room temperature, followed by incubation with 1 μM methoxy-X34 in the presence or absence of competitors at various concentrations (10-9-10-6 M). Sections will be subjected to fluorescent microscopy using a Nikon Eclipse C600 microscope. The fluorescent intensity of methoxy-X34 in vessels and neuritic plaques will be quantified using the ImageJ software. The binding affinity (Ki) will be calculated using the Graph Pad Prism software.

The format of series [2] is physicochemical. The procedure: Hydrophobicity affects drug absorption, bioavailability, hydrophobic drug-receptor interactions, metabolism of molecules, and their toxicity. […] The mixture will be incubated with agitation for 30 min until ionic and non-ionic forms of test compound reach equilibrium. Two layers will be separated by centrifugation. Test compound's concentrations in octanol and water layers will be determined by UV/VIS spectrophotometry. The log Poct value will be calculated from log (concentration in n-octanol fraction/concentration in water fraction). Experiments will be repeated at least 3 times with triplicated samples.

The target in a further series is CAA (Homo sapiens, UniProt P05067). As to the kind of experiment: Binding affinities for CAA performed on isolated vessels determined by fluorescent binding. Conditions: for pKi: read-out: Binding affinity Ki; for pKd: read-out: Binding affinity KD. How it is done:
The isolation of cerebral vessels for biochemical analysis will be performed as described (78, 98). […] After the cerebellum is removed, the brain will be homogenized in fivefold excess of vessel buffer. An equal volume of 26% dextran will be added, and the tissue will be centrifuged at 6200×g for 30 min at 4° C. The resulting vessels form a pellet, whereas the parenchymal “vessel-free” material forms a solid, compact disc at the top of the solution. The […] will be resuspended in vessel buffer and passed over a 40-μm nylon mesh to capture vessels. Vessel and parenchymal material will be lysed in 5 M guanidine, 50 mM Tris, pH 8, with protease inhibitor cocktail (Roche) for 3 hr.

In the next series the test system is neuritic plaques. The experiment in a line: In situ binding assay in fixed brain tissue, neuritic plaques. Further details: species or system Tg2576 mice. Conditions: in situ binding assay at a concentration of 160 μM.
Source text: as §1, §2
In situ binding assay: Tg2576 mice or littermate controls at 15 months of age will be perfused with phosphatebuffered saline (PBS) for 5 min. […] The fluorescent intensity of methoxy-X34 in vessels and neuritic plaques will be quantified using the ImageJ software. […]

Series [3] relates to CAA vs. neuritic plaques. As to the kind of experiment: Co-staining of fixed brain sections of Tg2576 mice with fluorescent amyloid dyes. In kind it is binding. The following applies: aged (16-month-old) Tg2576 mice.
Source text: as §1

For series [4], the system named is cerebrovascular Aβ deposits. As to the kind of experiment: In vivo live imaging of CAA amyloid deposits through closed cranial window. Conditions: topical application through cranial window, resorufin 2 μM, 16-month-old Tg2576 mice. How it is done: FIG. 4 depicts in vivo live imaging of CAA amyloid deposits through closed cranial window. A,B. Closed cranial window was prepared on the right parietal bone of 16-month-old Tg2576 mice. Leptomeningeal arterioles (B) were subjected to live imaging using a fluorescent microscope. […] Scale bars: in C-E: 250 μm, in E: 100 μm.

Series [5] has as its system CAA vs. neuritic plaques. As to the kind of experiment: Staining of paraffin-embedded cortical brain sections of a human AD patient (3D6 and resorufin). The class given is binding. The following applies: 3D6 co-labeling.
Source text: as §1

Series [6] concerns Aβ deposits in cerebral vessels. As to the kind of experiment: Multi-photon microscopy of whole brains stained with resorufin and phalloidin. Conditions: 16-month-old Tg2576 mice.
For series [7] the following is noted: normal mice, cited from earlier work.
The conditions of series [8]: normal rats; cited from earlier work.
The conditions of series [9]: literature value; cited from earlier work.

For the molecule `CCOc1ccc2nc3ccc(=O)cc-3oc2c1` [Ethoxy-resorufin, 7-ethoxyresorufin], in series [1], the “selective binding affinity for CAA deposits” value (from here on “selective binding affinity”) is listed as “low nanomolar range”. The pKi – broadly, the Ki on a negative log10 scale, so that one unit is a factor of ten – in series [1] (preliminary studies, read-out: binding affinity (Ki) for cerebrovascular Aβ deposits) is 6.61. For the same molecule, the lipophilicity result in [2] was “moderate lipophilicity”.

With `COc1ccc2nc3ccc(=O)cc-3oc2c1` [Methoxy-resorufin], the negative-log Ki (pKi) on CAA was 5.33.

With `O=c1ccc2nc3ccc(O)cc3oc-2c1` [Resorufin, resorufin], in the series on neuritic plaques, the “binding to neuritic plaques” value is on record as “negligible”. Also, the “staining of CAA vs. neuritic plaques” value in the series on CAA vs. neuritic plaques [3] is given as “CAA>>>neuritic plaques”; with CAA vs. neuritic plaques [3] (listed as resorufin), “selectively bound fibrillar amyloid-laden arterioles”. Further, the “fluorescent labeling of amyloid deposits in live mice” value in series [4] is listed as “selectively labeled amyloid deposits in arterioles”; in series [4] (listed as resorufin) it was “marked fluorescent labeling within the walls of leptomeningeal arteries (but not in neuritic plaques); also recorded: visualized cerebrovascular Aβ deposits”. Also, the “staining of arterioles vs. neuritic plaques in human AD brain” value in the series with CAA vs. neuritic plaques [5] was “selectively labeled 3D6-immunoreactive amyloid deposits in arterioles but less likely neuritic plaques; also recorded: prominent in 3D6-positive cerebral arterioles but was rarely seen in 3D6-positive neuritic plaques”. Also, the “log Poct” value in series [2] (30 min) was 0.427. Moreover, the “intensity of resorufin staining by vessel type” value in series [6] is recorded as “greater in pial arterioles than in penetrating arterioles or capillaries”.

For `C#COc1ccc2nc3ccc(=O)cc-3oc2c1` [WC-5-1], at CAA, the negative logarithm of the Kd (pKd) (usually the negative decadic logarithm of the Kd, by convention in mol/L) was 6.08 and the pKi is 5.34.

As to `O=c1ccc2nc3ccc(OCCF)cc3oc-2c1` [WC-5-2], on CAA, the negative logarithm of the Kd (pKd) was 6.10.

Take `O=c1ccc2nc3ccc(OCc4cn(CCF)nn4)cc3oc-2c1` [WC-5-3]: the pKd on CAA was 5.62.

As for `COc1cccc(COc2ccc3nc4ccc(=O)cc-4oc3c2)c1` [WC-5-4], at CAA, the pKd was 6.27.

As to `COc1ccc(COc2ccc3nc4ccc(=O)cc-4oc3c2)cc1` [WC-5-5], the negative-log Ki (pKi) on CAA was 6.66.

On to `CC(=O)OCCOc1ccc2nc3ccc(=O)cc-3oc2c1` [WC-5-8], for which the pKi at CAA is 6.07.

`O=c1ccc2nc3ccc(OCCBr)cc3oc-2c1` [WC-5-9]: the negative logarithm of the Kd (pKd) at CAA was 6.03.

Turning to `O=c1ccc2nc3ccc(OCc4ccc(I)cc4)cc3oc-2c1` [WC-5-31], the pKd at CAA is below 5.00.

On to `COCCOc1ccc2nc3ccc(=O)cc-3oc2c1` [WC-5-42], for which the negative logarithm of the Ki (pKi) at CAA was 6.46.

Take `COCCOCCOc1ccc2nc3ccc(=O)cc-3oc2c1` [WC-5-43]: the pKi at CAA was 6.39.

Regarding `COc1ccc(OCCOc2ccc3nc4ccc(=O)cc-4oc3c2)cc1` [WC-5-45], the negative-log Ki (pKi) on CAA is 6.38.

As to `COc1ccc(OCCOCCOc2ccc3nc4ccc(=O)cc-4oc3c2)cc1` [WC-5-47], at CAA, the pKi was below 5.00.

On to `[11CH3]Nc1ccc(-c2nc3ccc(O)cc3s2)cc1` [[^11C]PIB], for which the results for the brain level in series [7] (2 min after injection) and in series [7] (60 min) were 3.2 % ID/g and 0.21 % ID/g, respectively. Moreover, the “fraction in the brain cleared” value in series [7] (within 60 min) was 93%.

Take `COc1cc(/C=C/c2ccc(O)cc2)ccc1/C=C/c1ccc(O)cc1` [methoxy-X04, reference compound]: the “brain clearance estimated half life (t½)” value in [8] is given as around 45 min. Also, the “fluorescent labeling of amyloid deposits in live mice” value in [4] is “staining was noted in both arterioles and senile plaques; also recorded: present in both cerebral arteries and parenchymal neuritic plaques”. The “log Poct” value in series [9] is 2.6.

Take `COc1cc(C=Cc2ccc(O)c(C(=O)O)c2)ccc1C=Cc1ccc(O)c(C(=O)O)c1` [methoxy-X34, reference compound]: the “affinity for CAA vs. neuritic plaques” value in series [1] (in situ binding assay) is “almost an equal affinity for both CAA and neuritic plaques”. Besides, in the series with CAA vs. neuritic plaques [3], the “staining of CAA vs. neuritic plaques” value was “labeled amyloid deposited in both CAA and neuritic plaques; also recorded: visualized both CAA and neuritic plaques”.

For methoxyphenyl-resorufin, the “selective binding affinity” value in series [1] is “low nanomolar range”. Further, the lipophilicity result in series [2] was “moderate lipophilicity”.

Consider phenyl-resorufin, for which, in series [1], the “selective binding affinity” value is reported as “low nanomolar range”. Also, the lipophilicity entry in series [2] was “moderate lipophilicity”.
